Measured values reported in US20080292588A1, “1-METHYL-BENZO[1,2,4]THIADIAZINE 1-OXIDE DERIVATIVES” (Anadys Pharmaceuticals, Inc., priority 2007, published 2008).
Like-named read-outs stand apart in the source and are kept apart here.

Molecular target: HCV NS5B polymerase (Hepatitis C virus genotype 1b, UniProt Q9WMX2)
Experiment: HCV NS5B polymerase inhibition assay (FlashPlate, [α-33P]GTP incorporation)
Type: biochemical
Protocol: Compounds were tested for HCV NS5B polymerase inhibition. Assays were performed in a 96-well streptavidin-coated FlashPlate using 20 nM enzyme, 1.4 μCi of [(α-^33P]GTP, 0.63 μM GTP, and 250 nM 5′biotinylated oligo (rG13)/poly rC in 20 mM Tris-HCl, pH 7.5, 5 mM MgCl2, 5 mM dithiothreitol, 0.1 g/L bovine serum albumin, and 100 U/ml RNAse inhibitor. The reaction was stopped by aspiration after 75 min at 28° C. and the plate was washed several times. After washing and drying the plate, incorporated radioactivity was counted using a Microbeta scintillation counter. IC50 values were calculated relative to the uninhibited control and inhibition data were fitted to a 4-parameter IC50 equation. For very potent inhibitors, the data were fitted to a tight binding quadratic equation to obtain IC50 values.

[1] = 20 nM enzyme, 75 min at 28° C., read-out: NS5B IC50
[2] = read-out: NS5B polymerase inhibition IC50

Sequence of HCV NS5B polymerase (Q9WMX2 2420-3010): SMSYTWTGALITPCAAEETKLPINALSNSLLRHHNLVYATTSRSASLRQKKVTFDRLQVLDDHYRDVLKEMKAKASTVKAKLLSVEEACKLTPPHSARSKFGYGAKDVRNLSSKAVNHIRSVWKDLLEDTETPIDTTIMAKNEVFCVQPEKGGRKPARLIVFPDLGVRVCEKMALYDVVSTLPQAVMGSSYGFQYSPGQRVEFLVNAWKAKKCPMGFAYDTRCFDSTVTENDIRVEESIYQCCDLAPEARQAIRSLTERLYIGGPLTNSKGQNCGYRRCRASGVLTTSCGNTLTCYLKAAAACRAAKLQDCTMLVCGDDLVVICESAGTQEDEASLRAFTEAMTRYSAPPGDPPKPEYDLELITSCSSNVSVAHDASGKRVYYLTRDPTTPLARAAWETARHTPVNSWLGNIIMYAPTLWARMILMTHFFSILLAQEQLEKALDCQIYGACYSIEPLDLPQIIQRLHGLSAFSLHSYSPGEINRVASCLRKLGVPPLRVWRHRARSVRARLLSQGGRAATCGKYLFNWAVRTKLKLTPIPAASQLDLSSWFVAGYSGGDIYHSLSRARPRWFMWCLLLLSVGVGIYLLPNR

Compound | IC50 [1] [nM] | IC50 [2] [nM]
CC(C)(C)[C@H]1C(O)=C(C2=Nc3ccc(NS(C)(=O)=O)cc3S(C)(=O)=N2)C(=O)N1Cc1ccc(F)c(Cl)c1 (stereo in doubt) [Compound 32, N-{3-[5-tert-butyl-1-(3-chloro-4-fluoro-benzyl)-4-hydroxy-2-oxo-2,5-dihydro-1H-pyrrol-3-yl]-1-methyl-1-oxo-1λ^6-benzo[1,2,4]thiadiazin-7-yl}-methanesulfonamide] | < 1000 | < 1000
CS1(=O)=NC(C2=C(O)[C@@H]3CCC[C@@H]3N(Cc3ccc(F)cc3)C2=O)=Nc2ccccc21 (stereo in doubt) [Compound 68, 1-(4-fluoro-benzyl)-4-hydroxy-3-(1-methyl-1-oxo-1λ^6-benzo[1,2,4]thiadiazin-3-yl)-1,4a,5,6,7,7a-hexahydro-[1]pyrindin-2-one] | 1000 to 100000 | < 100000
CC(C)(C)CCn1nc(-c2cccs2)c(O)c(C2=Nc3ccc(NS(C)(=O)=O)cc3[S@@](C)(=O)=N2)c1=O [Compound 23] | < 1000 | < 1000
CC(C)(C)CCn1nc(-c2cccs2)c(O)c(C2=Nc3ccc(NS(C)(=O)=O)cc3[S@](C)(=O)=N2)c1=O [Compound 24] | 1000 to 100000 | < 100000
CC(C)(C)CCn1nc(N2CCCC2)c(O)c(C2=Nc3ccc(NS(C)(=O)=O)cc3S(C)(=O)=N2)c1=O (stereo not drawn) [Compound 28, N-{3-[2-(3,3-dimethyl-butyl)-5-hydroxy-3-oxo-6-pyrrolidin-1-yl-2,3-dihydro-pyridazin-4-yl]-1-methyl-1-oxo-1λ^6-benzo[1,2,4]thiadiazin-7-yl}-methanesulfonamide] | < 1000 | < 1000
CC(C)(C)CC[C@@]1(C)C(=O)C(C2=Nc3ccc(NS(C)(=O)=O)cc3[S@@](C)(=O)=N2)=C(O)c2ccccc21 [Compound 37] | < 1000 | < 1000
CC(C)(C)CC[C@@]1(C)C(=O)C(C2=Nc3ccc(NS(C)(=O)=O)cc3[S@](C)(=O)=N2)=C(O)c2ccccc21 [Compound 38] | < 1000 | < 1000
CS(=O)(=O)Nc1ccc2c(c1)S(C)(=O)=NC(C1=C(O)[C@@H]3[C@H]4CC[C@H](C4)[C@@H]3N(Cc3ccc(F)cc3)C1=O)=N2 (stereo partly drawn) [Compound 54, N-{3-[3-(4-fluoro-benzyl)-6-hydroxy-4-oxo-3-aza-tricyclo[6.2.1.0^2,7]undec-5-en-5-yl]-1-methyl-1-oxo-1λ^6-benzo[1,2,4]thiadiazin-7-yl}-methanesulfonamide] | < 1000 | < 1000

Other lines, results leading:

IC50 [1] [nM] | IC50 [2] [nM] | Compound
< 1000 | < 1000 | CS(=O)(=O)Nc1ccc2c(c1)S(C)(=O)=NC(C1=C(O)[C@H]3[C@H]([C@@H]4CC[C@H]3O4)N(Cc3ccc(F)cc3)C1=O)=N2 (mixture of isomers) [Compound 63, N-{3-[3-(4-fluoro-benzyl)-6-hydroxy-4-oxo-11-oxa-3-aza-tricyclo[6.2.1.0^2,7]undec-5-en-5-yl]-1-methyl-1-oxo-1λ^6-benzo[1,2,4]thiadiazin-7-yl}-methanesulfonamide]
< 1000 | < 1000 | CC[C@H]1CC(O)=C(C2=Nc3ccc(NS(C)(=O)=O)cc3S(C)(=O)=N2)C(=O)N1Cc1ccc(F)cc1 (mixture of isomers) [Compound 75, N-{3-[6-(S)-Ethyl-1-(4-fluoro-benzyl)-4-hydroxy-2-oxo-1,2,5,6-tetrahydro-pyridin-3-yl]-1-methyl-1-oxo-1λ^6-benzo[1,2,4]thiadiazin-7-yl}-methanesulfonamide]
< 1000 | < 1000 | CC(C)(C)CCn1nc(-c2cccs2)c(O)c(C2=Nc3ccc(NS(C)(=O)=O)cc3S(C)(=O)=N2)c1=O (racemic) [Compound 22, N-{3-[2-(3,3-dimethyl-butyl)-5-hydroxy-3-oxo-6-thiophen-2-yl-2,3-dihydro-pyridazin-4-yl]-1-methyl-1-oxo-1l6-benzo[1,2,4]thiadiazin-7-yl}-methanesulfonamide]
< 1000 | < 1000 | CC(C)(C)CC[C@@]1(C)C(=O)C(C2=Nc3ccc(NS(C)(=O)=O)cc3S(C)(=O)=N2)=C(O)c2ccccc21 (mixture of isomers) [Compound 36, N-{3-[4-(3,3-dimethyl-butyl)-1-hydroxy-4-methyl-3-oxo-3,4-dihydro-naphthalen-2-yl]-1-methyl-1-oxo-1λ^6-benzo[1,2,4]thiadiazin-7-yl}-methanesulfonamide]
